Experiments:
Assay type in all cases: cell-based
LC3B = test: Autophagy induction in macrophages, LC3B immunoblotting
From the text: Microtubule-associated protein 1A/1B-light chain 3 (LC3) is a soluble protein that is distributed ubiquitously in mammalian tissues and cultured cells (reviewed in Methods Mol. Biol. 445, 77-88 (2008). During autophagy, autophagosomes engulf cytoplasmic components, including cytosolic proteins and organelles. Concomitantly, a cytosolic form of LC3 (LC3-I) is conjugated to phosphatidylethanolamine to form LC3-phosphatidylethanolamine conjugate (LC3-II), which is recruited to autophagosomal membranes. Autophagosomes fuse with lysosomes to form autolysosomes, and intra-autophagosomal components are degraded by lysosomal hydrolases. At the same time, LC3-II in autolysosomal lumen is degraded. Thus, lysosomal turnover of the autophagosomal marker LC3-II reflects starvation-induced autophagic activity, and detecting LC3 by immunoblotting or immunofluorescence is an indicator of autophagy and autophagy-related processes, including autophagic cell death.
(§1) For these studies, macrophages were exposed to rapamycin 100 nM (a known inducer of autophagic flux), proteins were extracted and subjected to immunoblotting.
During autophagy, LC3B (LC3B-I) forms LC3B-phosphatidylethanolamine conjugate (LC3B-II), which is recruited to autophagosomal membranes. When there is autophagic flux there is lipidation of LC3B-I that results in conversion of LC3B-II. Thus, during autophagic flux the relative quantity of LC3B-II is increased compared to LC3B-I.

[1] = test system: Sequestome 1/p62 (SQSTM1); test: Autophagic flux in macrophages, SQSTM1/p62 immunoblotting; conditions: Compound A 1 and 2 μM, rapamycin 100 nM, immunoblot
Protocol: as §1
In addition, the inventors looked at another marker of autophagic flux (sequestosome 1, also called SQSTIM1 or p62). During active autophagy, SQSTIM1 is degraded (decreased).

HIV = HIV replication in macrophages, HIV p24 antigen released into culture supernatants; conditions: macrophages pretreated 24 hours; infection monitored 10 days; concentrations 100 pM to 2 μM
Protocol: For these experiments, peripheral blood mononuclear cells (PBMCs) were isolated from HIV seronegative donors and differentiated into macrophages for 7-10 days using methods previously described (J Biol Chem 286: 18890-18902 (2011); PLoS Pathogens 8(5):e1002689 pp 1-13 (2012); PLoS Pathogens 8(11):e1003017 (2012)). The macrophages were pretreated for 24 hours with Compound C, which is the β-catenin inhibitor (6S,9S,9aS)-N-benzyl-6-(4-hydroxybenzyl)-2,9-dimethyl-4,7-dioxo-8-(quinolin-8-ylmethyl)octahydro-1H-pyrazino[2,1-c][1,2,4]triazine-1-carboxamide. Macrophages were treated with Compound C at increasing concentrations and productive infection was monitored for 10 days by detection of HIV p24 antigen released into the culture supernatants.

CD4 Tscm = test: In vitro culture assay of sorted CD4 Tscm, phenotype by flow cytometry; conditions: 10 d incubation with rhIL-15; compared to control experiments
Protocol: (§2) PBMC were stained with monoclonal antibodies directed against CD4, CD3, CD45RA, CCR7, CD62L, CD122, CD95, according to standard protocols. After 20 minutes, CCR7+ CD45RA+ naïve CD4 T cells, CCR7+ CD45RA− central-memory CD4 T cells (CD4 Tcm), CCR7− CD45RA− CD4 T cells, CCR7− CD45RA+ terminally-differentiated CD4 T cells (CD4 Ttd) and CCR7+ CD45RA+ CD62L+ CD95+ CD122+ T memory stem cell CD4 T cells (CD4 Tscm) were live sorted in a specifically designated biosafety cabinet (Baker Hood), using a FACS Aria cell sorter (BD Biosciences) at 70 pounds per square inch. For phenotypic characterization, cells were additionally stained with CCR5 or CXCR4 antibodies, or Annexin V, and acquired on a LSRII flow cytometer (BD Biosciences). Data were analyzed using FlowJo software (Treestar).
(§3) Selected CD4 T cell subsets were isolated by cell sorting, labeled cells with 2 μM CFSE for 7 min at 37° C., and incubated with rhIL-15 (25 ng/ml; Peprotech) for 10 d in the presence or absence of Compound C, (6S,9S,9aS)-N-benzyl-6-(4-hydroxybenzyl)-2,9-dimethyl-4,7-dioxo-8-(quinolin-8-ylmethyl)octahydro-1H-pyrazino[2,1-c][1,2,4]triazine-1-carboxamide (Prism Biolabs). Afterwards, cells were harvested and phenotypically characterized by flow cytometry. […]

CD4 Tcm = test: In vitro culture assay of sorted CD4 Tcm, phenotype by flow cytometry; conditions: 10 d incubation with rhIL-15; compared to control experiments
Protocol: as §2, §3

| SMILES | induction of autophagy (LC3B; 1 and 2 μM) | levels of LC3B II and LC3B I relative to negative control (LC3B; Compound A 2 μM, rapamycin 100 nM, immunoblot) | amount of LC3B II and LC3B I relative to negative control (LC3B; Compound A 1 and 2 μM, rapamycin 100 nM, immunoblot) | SQSTM1 (p62) levels relative to negative control [1] | HIV replication (HIV p24 antigen) (HIV) | differentiation of Tscm into more mature CCR7− CD62L− CD4 T cell populations (CD4 Tscm) | differentiation of Tcm into more mature CCR7− CD62L− CD4 T cell populations (CD4 Tcm) |
| --- | --- | --- | --- | --- | --- | --- | --- |
| C[C@H]1[C@H]2N(C(=O)CN(C)N2C(=O)NCc2ccccc2)[C@@H](Cc2ccc(OP(=O)(O)O)cc2)C(=O)N1Cc1cccc2cccnc12 [Compound A, 4-(((6S,9S,9aS)-1-(benzylcarbamoyl)-2,9-dimethyl-4,7-dioxo-8-(quinolin-8-ylmethyl)octahydro-1H-pyrazino[2,1-c][1,2,4]triazin-6-yl)methyl)phenyl dihydrogen phosphate] | induces autophagy | greatly reduced | increased amount of LC3B II and decreased amount of LC3B I | reduced |  |  |  |
| C[C@H]1[C@H]2N(C(=O)CN(C)N2C(=O)NCc2ccccc2)[C@@H](Cc2ccc(O)cc2)C(=O)N1Cc1cccc2cccnc12 [Compound C, (6S,9S,9aS)-N-benzyl-6-(4-hydroxybenzyl)-2,9-dimethyl-4,7-dioxo-8-(quinolin-8-ylmethyl)octahydro-1H-pyrazino[2,1-c][1,2,4]triazine-1-carboxamide] |  |  |  |  | inhibits HIV in a dose dependent manner | substantially facilitated differentiation | to a lesser extent |

Source: patent US20160244453A1, “TREATMENT OF VIRAL AND INFECTIOUS DISEASES USING AN INHIBITOR OF CBP/CATENIN” (PRISM PHARMA CO., LTD., priority 2013, published 2016)
